Measured values: BindingDB's records for doi:10.1016/j.chembiol.2016.11.013 (Peking University, 2017)
pIC50, pKd: −log10 of the molar value.

Tests used:
[1] = molecular target: T1, D-3-phosphoglycerate dehydrogenase (Homo sapiens, UniProt O43175); assay: PHGDH Enzyme Assay; conditions: pH 7.1
T1 sequence (O43175 whole entry): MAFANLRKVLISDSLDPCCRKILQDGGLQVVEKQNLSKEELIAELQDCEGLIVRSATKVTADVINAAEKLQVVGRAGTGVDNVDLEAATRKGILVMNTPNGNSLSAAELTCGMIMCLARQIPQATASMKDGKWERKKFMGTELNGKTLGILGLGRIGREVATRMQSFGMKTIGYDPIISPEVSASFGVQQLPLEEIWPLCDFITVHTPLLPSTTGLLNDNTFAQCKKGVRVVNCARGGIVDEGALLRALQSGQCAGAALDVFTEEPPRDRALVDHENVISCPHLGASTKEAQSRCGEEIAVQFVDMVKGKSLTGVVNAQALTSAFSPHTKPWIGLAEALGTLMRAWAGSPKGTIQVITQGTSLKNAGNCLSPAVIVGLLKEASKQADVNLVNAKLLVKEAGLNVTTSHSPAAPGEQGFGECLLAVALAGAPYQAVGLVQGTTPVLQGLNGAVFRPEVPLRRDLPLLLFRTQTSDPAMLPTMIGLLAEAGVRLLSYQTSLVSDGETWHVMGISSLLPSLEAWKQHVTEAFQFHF
Method: (§1) To evaluate the effects of compounds on PHGDH activity, compounds were first pre-incubated with enzyme samples in the assay buffer (25 mM HEPES, pH 7.1, 400 mM KCl, 5 μM phosphopyridoxa (PLP), 0.5 mM α-ketoglutarate, 150 μM NADH, 1 mM DTT) for 10 min at 25℃, then the reaction was started by adding L-phospho-O-serine (Pser). […] Fluorescence signals were recorded for 3 min with a kinetics mode program using on a plate reader (Synergy, Biotek).

[2] = molecular target: T2, D-3-phosphoglycerate dehydrogenase [3-314] (Homo sapiens, UniProt O43175); assay: PHGDH Enzyme Assay; conditions: pH 7.1
T2 construct: 3-314
T2 sequence (O43175 whole entry): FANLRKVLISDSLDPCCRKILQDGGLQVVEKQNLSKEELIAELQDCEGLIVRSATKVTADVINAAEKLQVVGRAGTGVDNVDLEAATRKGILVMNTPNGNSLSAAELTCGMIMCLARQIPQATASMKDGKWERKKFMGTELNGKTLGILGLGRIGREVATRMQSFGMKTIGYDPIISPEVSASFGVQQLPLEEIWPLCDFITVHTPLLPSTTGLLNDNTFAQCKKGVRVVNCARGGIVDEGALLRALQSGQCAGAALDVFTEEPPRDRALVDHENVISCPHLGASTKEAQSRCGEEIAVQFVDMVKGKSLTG
Method: as §1

[3] = molecular target: T1, D-3-phosphoglycerate dehydrogenase; assay: PHGDH SPR Assay; conditions: pH 7.4
Method: The binding affinities of compounds towards PHGDH were assayed using the SPR-based Biacore T200 instrument (GE Healthcare). PHGDH was immobilized on a CM5 sensor chip by using standard amine-coupling at 25℃ with running buffer PBS-P (20 mM phosphate buffer, […], 0.05% surfactant P-20, pH 7.4), respectively, as described previously. A reference flow cell was activated and blocked in the absence of PHGDH. […] Regeneration was achieved by extended washing with the running buffer after each sample injection.

pIC50 [1] | pIC50 [2] | pKd [3] | pKd ([3]; read-out: Kd) | SMILES
4.55 |  |  | 5.14 | O=C(O)CSC1=C(SCC(=O)O)C(=O)C(SCC(=O)O)=C(SCC(=O)O)C1=O [PKUMDL-WQ-2203]
4.38 |  |  | 4.54 | Cc1c(/N=N/c2cccc(C(=O)O)c2)c(O)[nH]c(=O)c1C#N [PKUMDL-WQ-2202]

Second part, the compound before the results:

SMILES | pIC50 [1] | pIC50 [2] | pKd [3] | pKd ([3]; read-out: Kd)
O=C(N/N=C/c1cc([N+](=O)[O-])ccc1O)c1ccc(O)cc1O [PKUMDL-WQ-2101] | 4.35 | 4.52 | 6.25 | 
O=C1N[C@H]2[C@H](CS[C@H]2CCCCC(=O)OCc2cc([N+](=O)[O-])cc(/C=N/NC(=O)c3ccc(O)cc3O)c2O)N1 [PKUMDL-WQ-2101-Biotin] | 4.31 |  |  | 
CCNC(=S)N/N=C\c1ccc(-c2ccc(C(=O)O)c(Cl)c2)o1 [PKUMDL-WQ-2201] |  | 4.46 |  | 4.17
